What was measured:
Verticillium fungicola = assay: In vitro antifungal activity in 96-well microtiter plates against Verticillium fungicola; type: cell-based
Protocol: The following compositions are tested: • Control (no active ingredient), • 1.25 or 2.5 ppm natamycin (DSM Food Specialties, Delft, The Netherlands), • 0.5 ppm chlorothalonil, • 1.25 ppm natamycin+0.5 ppm chlorothalonil, • 2.5 ppm natamycin+0.5 ppm chlorothalonil. […] Subsequently, 100 μl of a Verticillium fungicola suspension prepared in PCB medium is used to inoculate each well with 5.0×10^3 spores/ml. […] After incubation of the microtiter plates for 3 and 5 days at 25° C., the in vitro antifungal activity (%) of the individual active ingredients was assessed by calculating the reduction in mould growth observed in the presence of the active ingredient in comparison to the mould growth observed in the absence of the active ingredient. The expected antifungal activity (E in %) of the active ingredient combination was calculated according to the Colby equation (Colby, 1967): […] wherein X and Y are the observed antifungal activities (in %) of the individual active ingredients X and Y, respectively.

Trichoderma harzianum = assay: In vitro antifungal activity in 96-well microtiter plates against Trichoderma harzianum; type: cell-based
Protocol: Subsequently, 100 μl of a Verticillium fungicola suspension prepared in PCB medium is used to inoculate each well with 5.0×10^3 spores/ml.
, the in vitro antifungal activity (%) of the individual active ingredients was assessed by calculating the reduction in mould growth observed in the presence of the active ingredient in comparison to the mould growth observed in the absence of the active ingredient. The expected antifungal activity (E in %) of the active ingredient combination was calculated according to the Colby equation (Colby, 1967): […]
wherein X and Y are the observed antifungal activities (in %) of the individual active ingredients X and Y, respectively. If the observed antifungal activity (O in %) of the combination exceeds the expected antifungal activity (E in %) of the combination and the resulting synergy factor O/E is thus >1.0, the combined application of the active ingredients leads to a synergistic antifungal effect.
Furthermore, Trichoderma harzianum was used for inoculation.

[1] = Chlorothalonil 0.5 ppm, incubation 5 days at 25° C.

Measured: Observed antifungal activity O (%)

N#Cc1c(Cl)c(Cl)c(Cl)c(C#N)c1Cl [Chlorothalonil, 2,4,5,6-tetrachloroisophthalonitrile]
0%: Verticillium fungicola; Chlorothalonil 0.5 ppm, incubation 3 days at 25° C. | Verticillium fungicola; [1] | Trichoderma harzianum; [1] | Trichoderma harzianum; Chlorothalonil 1.0 ppm, incubation 10 days at 25° C. | Trichoderma harzianum; Chlorothalonil 1.0 ppm, incubation 17 days at 25° C. | Trichoderma harzianum; Chlorothalonil 1.5 ppm, incubation 17 days at 25° C.

C[C@@H]1C/C=C/C=C/C=C/C=C/[C@H](O[C@@H]2O[C@H](C)[C@@H](O)[C@H](N)[C@@H]2O)C[C@@H]2O[C@](O)(C[C@@H](O)C[C@H]3O[C@@H]3/C=C/C(=O)O1)C[C@H](O)[C@H]2C(=O)O [Natamycin, natamycin]
0%: Verticillium fungicola; Natamycin 1.25 ppm, incubation 3 days at 25° C. | Verticillium fungicola; Natamycin 2.5 ppm, incubation 5 days at 25° C. | Trichoderma harzianum; Natamycin 1.25 ppm, incubation 5 days at 25° C. | Trichoderma harzianum; Natamycin 1.25 ppm, incubation 10 days at 25° C. | Trichoderma harzianum; Natamycin 1.25 ppm, incubation 17 days at 25° C. | Trichoderma harzianum; Natamycin 2.5 ppm, incubation 17 days at 25° C.

Reference: patent US20150181881A1, “METHODS FOR CONTROLLING FUNGAL DISEASES IN MUSHROOM PRODUCTION” (DSM IP ASSETS B.V., priority 2012, published 2015)
